Experimental data from paper PMC10931776, “Modes of Interactions with DNA/HSA Biomolecules and Comparative Cytotoxic Studies of Newly Synthesized Mononuclear Zinc(II) and Heteronuclear Platinum(II)/Zinc(II) Complexes toward Colorectal Cancer Cells” (International Journal of Molecular Sciences, 2024).
Like-named read-outs stand apart in the source and are kept apart here.

Assays:
[1] = test system: CT-DNA; assay: Ethidium bromide/CT-DNA fluorescence quenching (EB displacement); assay type: binding; settings: EB/CT-DNA 1:1, 5 µM, PBS pH 7.4, room temperature, λex 527 nm, λem 612 nm
From the text: Fluorescent spectroscopy allows the determination of the intercalation potential of compounds. Intercalation involves planar aromatic molecules binding between the base pairs of DNA chains, causing them to elongate. Ethidium bromide (EB) is commonly used as a DNA intercalator and produces high levels of fluorescent emissions at 612 nm when intercalating between DNA strands. However, the addition of compounds that can intercalate between DNA strands and suppress the effects of EB will reduce fluorescent emissions. If a complex is able to replace EB, fluorescence reduction will occur, indicating the complex’s ability to bind intercalatively. Figure 3 and Figures S10–S13 show the results of fluorescence titrations in the presence of intercalator EB, where the emission intensity of a constant CT-DNA/EB solution concentration of 5 µM was monitored with increasing complex concentration up to a ratio of 5.
To determine whether the complex could displace EB from the CT-DNA-EB complex, the interactions of the complex with CT-DNA were examined in the presence of EB. The CT-DNA-EB solution was formed by combining EB and CT-DNA solutions with a concentration of 5 μM at a pH of 7.4. The impact of the complex binding to the CT-DNA was measured by analyzing the fluorescence emission spectrum after the addition of the examined complexes solution in increasing concentration, Figure 3.
The binding affinity of the complexes C1–C5 to CT-DNA via intercalation was determined using fluorescence spectroscopy. All measurements were conducted at room temperature in 0.01 M PBS with a pH of 7.4. Fluorescence measurements were performed by adding increasing complex concentrations (0–50 μM) to a CT-DNA and EB solution. Before each measurement, the system was shaken at room temperature. The fluorescence intensity was measured with the wavelength of excitation at 527 nm and the wavelength of emission at 612 nm. The width of the excitation and emission slits (10 nm) and scan rate were maintained at a constant rate. The emission of the solution was recorded in the range of 550 to 750 nm. The Stern–Volmer constants, Ksv, were determined by Equation (2). I0/I = 1 + Ksv[Q](2) [Q] is the concentration of the complex, I0 and I represent emission intensities in the absence and presence of complex, and Ksv is the Stern–Volmer constant obtained from the slope of the plot of I0/I vs. [Q] [25, 26, 27, 28].

[2] = molecular target: T1, Human serum albumin (HSA) (Homo sapiens, UniProt P02768); assay: HSA fluorescence quenching; assay type: binding; settings: for Stern–Volmer constant Ksv, HSA: HSA 2 µM, complex 0–30 µM, PBS pH 7.4, room temperature, λex 295 nm
T1 construct: reagents in general came from Sigma-Aldrich, Acros Organics or Merck
From the text: Human serum albumin (HSA) produces a fluorescence signal when excited at 295 nm due to the tryptophan residues. This characteristic makes fluorescence spectroscopy an effective tool for studying complex interactions involving HSA. If the examined complex interacts with HSA, an increasing concentration of the complex will lead to a decrease in fluorescence, as shown in Figure 4 and Figures S14–S17. […] The Stern–Volmer equation (Equation (S2)) was used to determine the Stern–Volmer constant, Ksv, for the HSA interactions.
The binding affinity of the complexes C1–C5 to HSA has been determined through fluorescence quenching experiments. The measurements were conducted in a 0.01 M PBS with a pH of 7.4 at room temperature. The HSA concentration was kept constant at 2 μM while the concentration of complexes C1–C5 was increased from 0 to 30 μM, resulting in a significant decrease in emissions at 352 nm. Before each measurement, the system was shaken at room temperature. The fluorescence intensity was measured with the wavelength of excitation at 295 nm and recorded in the 300 to 500 nm range. The width of the excitation and emission slits (10 nm) and scan rate were maintained at a constant rate. The Stern–Volmer constants, Ksv, were determined by Equation (2).

[3] = test system: mouse colorectal carcinoma (CT26); assay: MTT cytotoxicity assay, CT26; assay type: cell-based; settings: 48 h; for IC50: read-out: IC50 ± SEM, CT26
Procedure: (§1) The in vitro cytotoxicity of newly synthesized mono- and heteronuclear platinum(II)/and zinc(II) complexes, featuring a 4,4′,4″-tri-tert-butyl-2,2′:6′,2″-terpyridine ligand (designated as C1–C5), was assessed using MTT assay procedures. This evaluation targeted various cell lines: mouse colorectal carcinoma (CT26), human colorectal carcinoma (HCT116 and SW480), and non-cancerous mouse mesenchymal stem cells (mMSC). These cell lines were exposed to synthesized complexes for 48 h, with concentrations ranging from 1.17 to 150 μM.
(§2) In our study, various cell lines were cultured, including mouse colorectal carcinoma (CT26), human colorectal carcinoma (HCT116 and SW480) obtained from ATCC, USA, and mouse mesenchymal stem cells (mMSC, Gibco), New York, NY, USA). These cell lines were consistently maintained in complete Dulbecco’s Modified Eagle Medium (DMEM) supplemented with 10% fetal bovine serum (FBS) (Sigma Aldrich, St. Louis, MO, USA), 100 IU/mL penicillin, and 100 μg/mL streptomycin antibiotics (Invitrogen, Carlsbad, CA, USA). The cultures were incubated at 37 °C in a humidified atmosphere of 5% carbon dioxide (CO2). […] The viability and count of the cells were determined using Trypan blue staining, ensuring the accuracy and reliability of the experimental outcomes.
(§3) The cytotoxic effects of five newly synthesized complexes, alongside cisplatin, were assessed through the MTT assay method, in line with previously established protocols. During the exponential growth phase, cells were collected from culture flasks, counted, and then seeded in 96-well culture plates at a density of 5·10^3 cells per well. Subsequent treatment involved exposing these cells to varying concentrations of the newly synthesized complexes and cisplatin (ranging from 1.17 to 150 μM) for a duration of 48 h, with fresh complete medium serving as the control. The results were quantified relative to the control (untreated cells), providing a comparative measure of cytotoxicity. Additionally, IC50 values, representing the concentration required to inhibit 50% of the cell viability, were calculated using Microsoft Office Excel 2010. Lastly, the data were presented as percentages of viable cells in accordance with the methodology outlined in the referenced study, facilitating a comprehensive understanding of the anticancer potential of these compounds.

[4] = test system: human colorectal carcinoma (HCT116); assay: MTT cytotoxicity assay, HCT116; assay type: cell-based; settings: 48 h; for IC50: read-out: IC50 ± SEM, HCT 116
Procedure: as §1, §2, §3

[5] = test system: human colorectal carcinoma (SW480); assay: MTT cytotoxicity assay, SW480; assay type: cell-based; settings: 48 h; for IC50: read-out: IC50 ± SEM, SW480
Procedure: as §1, §2, §3

[6] = test system: mouse mesenchymal stem cells (mMSC); assay: MTT cytotoxicity assay, mMSC; assay type: cell-based; settings: 48 h, non-cancerous cells, read-out: IC50 ± SEM, mMSCs
Procedure: as §1
In the context of developing low-toxicity drugs, it is imperative to evaluate the antiproliferative activity against normal cells. The in vitro toxicity of the tested complexes toward normal mouse mesenchymal stem cells (mMSC) was examined. […] These findings indicate the possibility of enhanced in vivo tolerance for this complex.
as §2, §3

[7] = molecular target: T1, Human serum albumin (HSA); set-up: method as in earlier work; settings: literature value; ref [24]; cited from earlier work
[8] = molecular target: B-DNA (PDB ID: 1BNA); set-up: method as in PMID 36535193, doi:10.1002/aoc.7413; settings: previously tested complexes; ref [11],[12]; read-out: Ki (inhibition constant), docking with DNA; cited from earlier work

T1 sequence (P02768 25-609): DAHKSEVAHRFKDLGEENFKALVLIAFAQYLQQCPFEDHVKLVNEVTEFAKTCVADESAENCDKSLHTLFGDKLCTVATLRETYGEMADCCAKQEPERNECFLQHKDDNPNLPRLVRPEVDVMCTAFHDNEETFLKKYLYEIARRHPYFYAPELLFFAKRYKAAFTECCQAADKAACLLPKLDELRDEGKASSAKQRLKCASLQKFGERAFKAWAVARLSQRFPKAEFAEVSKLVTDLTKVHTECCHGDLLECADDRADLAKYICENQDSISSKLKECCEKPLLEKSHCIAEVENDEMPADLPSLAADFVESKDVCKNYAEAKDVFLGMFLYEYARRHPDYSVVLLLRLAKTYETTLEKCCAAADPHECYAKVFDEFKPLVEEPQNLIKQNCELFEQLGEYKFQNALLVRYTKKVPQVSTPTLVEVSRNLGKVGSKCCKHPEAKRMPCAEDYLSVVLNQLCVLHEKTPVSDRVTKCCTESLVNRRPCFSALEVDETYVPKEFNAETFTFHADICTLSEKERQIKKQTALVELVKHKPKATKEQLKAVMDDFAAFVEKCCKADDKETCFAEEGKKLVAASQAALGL

Compound	Stern–Volmer constant Ksv, CT-DNA [1]	Stern–Volmer constant Ksv, HSA [2]	Selectivity Index (IC50 mMSC/IC50), CT26 [3]	IC50 [3] [µM]	Selectivity Index (IC50 mMSC/IC50), HCT 116 [4]	IC50 [4] [µM]	Selectivity Index (IC50 mMSC/IC50), SW480 [5]	IC50 [5] [µM]	IC50 [6] [µM]	Ki [8] [µM]	other results
CC(C)(C)c1ccnc(-c2cc(C(C)(C)C)cc(-c3cc(C(C)(C)C)ccn3)n2)c1.N.N.[Cl-].[Cl-].[O-][Cl+3]([O-])([O-])[O-].[O-][Cl+3]([O-])([O-])[O-].[Pt+2].[Zn+2].c1cnccn1 [C2, [{cis-PtCl(NH3)2(μ-pyrazine)ZnCl(terpy^t^Bu)}](ClO4)2]	2.9 ± 0.1 10^4 M^–1	5.8 ± 0.1 10^4 M^–1	0.3	35.1 ± 39.6	0.4	26.6 ± 25.9	0.4	25.7 ± 2.93	10.1 ± 0.98	–	–
N.N.[Cl][Pt][Cl] [cisplatin, reference compound]	–	–	0.8	9.03 ± 3.55	0.5	14.7 ± 2.21	0.7	10.1 ± 3.98	7.32 ± 2.51	–	Stern–Volmer constant Ksv, HSA [7]: 0.24 ** 10^4 M^–1
[{cis-PtCl(NH3)2(μ-4,4′-bipyridyl)ZnCl(terpy)}](ClO4)2 [C3b]	–	–	–	–	–	–	–	–	–	1.01	–
[{cis-PtCl(NH3)2(μ-4,4′-bipyridyl)ZnCl(terpy-Cl)}](ClO4)2 [C3a]	–	–	–	–	–	–	–	–	–	52.1	–
[{cis-PtCl(NH3)2(μ-4,4′-bipyridyl)ZnCl(terpy^t^Bu)}](CIO4)2 [C4]	5.2 ± 0.1 10^4 M^–1	22.7 ± 0.1 10^4 M^–1	0.3	183 ± 72.4	0.7	89.4 ± 6.7	0.6	94.1 ± 9.89	60.3 ± 24.7	–	Ksv value for HSA, order of magnitude ([2]; fluorescence quenching of HSA): ~10^5 M^−1
[{cis-PtCl(NH3)2(μ-pyrazine)ZnCl(terpy)}](ClO4)2 [C1b]	–	–	–	–	–	–	–	–	–	18.1	–
[{cis-PtCl(NH3)2(μ-pyrazine)ZnCl(terpy-Cl)}](ClO4)2 [C1a]	–	–	–	–	–	–	–	–	–	248	–
[{trans-PtCl(NH3)2(μ-4,4′-bipyridyl)ZnCl(terpy)}](ClO4)2 [C4b]	–	–	–	–	–	–	–	–	–	1.22	–
[{trans-PtCl(NH3)2(μ-4,4′-bipyridyl)ZnCl(terpy-Cl)}](ClO4)2 [C4a]	–	–	–	–	–	–	–	–	–	117	–
[{trans-PtCl(NH3)2(μ-4,4′-bipyridyl)ZnCl(terpy^t^Bu)}](CIO4)2 [C5]	2.9 ± 0.1 10^4 M^–1	9.5 ± 0.1 10^4 M^–1	0.4	108 ± 79.9	0.3	152 ± 26.8	0.5	75.4 ± 21.2	40.2 ± 3.96	–	–
[{trans-PtCl(NH3)2(μ-pyrazine)ZnCl(terpy)}](ClO4)2 [C2b]	–	–	–	–	–	–	–	–	–	16.3	–
[{trans-PtCl(NH3)2(μ-pyrazine)ZnCl(terpy-Cl)}](ClO4)2 [C2a]	–	–	–	–	–	–	–	–	–	231	–
[{trans-PtCl(NH3)2(μ-pyrazine)ZnCl(terpy^t^Bu)}](ClO4)2 [C3]	2.1 ± 0.1 10^4 M^–1	4.5 ± 0.1 10^4 M^–1	0.4	210 ± 87	0.4	181 ± 105	1.1	68.1 ± 5.21	76.2 ± 12	–	–
